Test results reported in patent US8729062B2, “Benzyl azetidine derivatives as sphingosine 1-phosphate (S1P) receptor modulators” (Allergan, Inc., priority 2010, dated 2014).

What follows are compounds tested against T1, human S1P1 receptor (Homo sapiens, UniProt P21453) (assay: GTP γ35S binding assay for S1P1 activity). Settings: membranes of cells stably expressing S1P1 receptor, agonist potency, test range 0.08 to 5,000 nM.
T1 construct: expressed in transfected cells; membranes used
T1 sequence (P21453 whole entry): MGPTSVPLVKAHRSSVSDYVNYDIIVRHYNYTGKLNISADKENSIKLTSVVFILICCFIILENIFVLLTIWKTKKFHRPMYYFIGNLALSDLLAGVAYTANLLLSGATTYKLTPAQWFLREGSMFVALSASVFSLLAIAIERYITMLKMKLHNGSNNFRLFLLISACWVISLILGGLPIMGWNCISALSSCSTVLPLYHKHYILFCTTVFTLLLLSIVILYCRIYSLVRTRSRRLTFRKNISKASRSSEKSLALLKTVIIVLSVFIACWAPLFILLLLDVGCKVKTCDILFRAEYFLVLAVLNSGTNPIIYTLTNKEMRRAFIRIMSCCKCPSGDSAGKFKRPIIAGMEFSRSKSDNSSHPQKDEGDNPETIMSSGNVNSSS
Format: biochemical
Experimental: Compounds were synthesized and tested for S1P1 activity using the GTP γ^35S binding assay. These compounds may be assessed for their ability to activate or block activation of the human S1P1 receptor in cells stably expressing the S1P1 receptor.
GTP γ^35S binding was measured in the medium containing (mM) HEPES 25, pH 7.4, MgCl2 10, NaCl 100, dithitothreitol 0.5, digitonin 0.003%, 0.2 nM GTP γ^35S, and 5 μg membrane protein in a volume of 150 μl. Test compounds were included in the concentration range from 0.08 to 5,000 nM unless indicated otherwise. Membranes were incubated with 100 μM 5′-adenylylimmidodiphosphate for 30 min, and subsequently with 10 μM GDP for 10 min on ice. Drug solutions and membrane were mixed, and then reactions were initiated by adding GTP γ^35S and continued for 30 min at 25° C. Reaction mixtures were filtered over Whatman GF/B filters under vacuum, and washed three times with 3 mL of ice-cold buffer (HEPES 25, pH7.4, MgCl2 10 and NaCl 100). Filters were dried and mixed with scintillant, and counted for ^35S activity using a […]. Agonist-induced GTP γ^35S binding was obtained by subtracting that in the absence of agonist. Binding data were analyzed using a non-linear regression method. In case of antagonist assay, the reaction mixture contained 10 nM S1P in the presence of test antagonist at concentrations ranging from 0.08 to 5000 nM.
`Cc1ccc(CC(c2cccc(F)c2)c2nc(-c3ccc(CN4CC(C(=O)O)C4)cc3)no2)cc1C` (centres unmarked) [Compound 2, 1-(4-{5-[1-(3-fluorophenyl)-2-(3,4-dimethylphenyl)ethyl]-1,2,4-oxadiazol-3-yl}benzyl)azetidine-3-carboxylic acid] was tested, and the EC50 was 0.0015 µM.
Compound `Cc1ccc(CC(c2nc(-c3ccc(CN4CC(C(=O)O)C4)cc3)no2)c2cccs2)cc1` (centres unmarked) [1-(4-{5-[2-(4-methylphenyl)-1-(2-thienyl)ethyl]-1,2,4-oxadiazol-3-yl}benzyl)azetidine-3-carboxylic acid] has an EC50 of 0.209 µM.
Work on `Cc1ccc(CC(c2cccc(C(F)(F)F)c2)c2nc(-c3ccc(CN4CC(C(=O)O)C4)cc3)no2)cc1C` (centres unmarked) [1-[4-(5-{2-(3,4-dimethylphenyl)-1-[3-(trifluoromethyl)phenyl]ethyl}-1,2,4-oxadiazol-3-yl)benzyl]azetidine-3-carboxylic acid] yielded an EC50 of 0.0893 µM.
`Cc1ccc(CC(c2nc(-c3ccc(CN4CC(C(=O)O)C4)cc3)no2)c2cccs2)cc1C` (centres unmarked) [1-(4-{5-[2-(3,4-dimethylphenyl)-1-(2-thienyl)ethyl]-1,2,4-oxadiazol-3-yl}benzyl)azetidine-3-carboxylic acid] was tested, and the EC50 was 0.134 µM.
`Cc1ccc(CC(c2cc(F)cc(F)c2)c2nc(-c3ccc(CN4CC(C(=O)O)C4)cc3)no2)cc1C` (centres unmarked) [1-(4-{5-[1-(3,5-difluorophenyl)-2-(3,4-dimethylphenyl)ethyl]-1,2,4-oxadiazol-3-yl}benzyl)azetidine-3-carboxylic acid] gave an EC50 of 0.0171 µM.
In the case of `Cc1cc(C)cc(C(Cc2ccc(C)c(C)c2)c2nc(-c3ccc(CN4CC(C(=O)O)C4)cc3)no2)c1` (centres unmarked) [1-(4-{5-[2-(3,4-dimethylphenyl)-1-(3,5-dimethylphenyl)ethyl]-1,2,4-oxadiazol-3-yl}benzyl)azetidine-3-carboxylic acid], the EC50 is reported as 0.535 µM.
For `Cc1ccc(CC(c2ccsc2)c2nc(-c3ccc(CN4CC(C(=O)O)C4)cc3)no2)cc1` (centres unmarked) [1-(4-{5-[2-(4-methylphenyl)-1-(3-thienyl)ethyl]-1,2,4-oxadiazol-3-yl}benzyl)azetidine-3-carboxylic acid], the EC50 was 0.146 µM.
`Cc1ccc(CC(c2cccc(Cl)c2)c2nc(-c3ccc(CN4CC(C(=O)O)C4)cc3)no2)cc1C` (centres unmarked) [Compound 1, 1-(4-{5-[1-(3-Chlorophenyl)-2-(3,4-dimethylphenyl)ethyl]-1,2,4-oxadiazol-3-yl}benzyl)azetidine-3-carboxylic acid] was tested, and the EC50 was 0.00377 µM.
Compound `Cc1ccc(CC(c2cncc(Cl)c2)c2nc(-c3ccc(CN4CC(C(=O)O)C4)cc3)no2)cc1C` (centres unmarked) [1-(4-{5-[1-(5-chloropyridin-3-yl)-2-(3,4-dimethylphenyl)ethyl]-1,2,4-oxadiazol-3-yl}benzyl)azetidine-3-carboxylic acid] has an EC50 of 0.0299 µM.
Work on `Cc1ccc(CC(c2ccsc2)c2nc(-c3ccc(CN4CC(C(=O)O)C4)cc3)no2)cc1C` (centres unmarked) [1-(4-{5-[2-(3,4-dimethylphenyl)-1-(3-thienyl)ethyl]-1,2,4-oxadiazol-3-yl}benzyl)azetidine-3-carboxylic acid] yielded an EC50 of 0.0767 µM.
`O=C(O)C1CN(Cc2ccc(-c3noc(C(CC4CCCCC4)c4cccc(Cl)c4)n3)cc2)C1` (centres unmarked) [1-(4-{5-[1-(3-chlorophenyl)-2-cyclohexylethyl]-1,2,4-oxadiazol-3-yl}benzyl)azetidine-3-carboxylic acid] was tested, and the EC50 was 1.24 µM.
